Test system: HepG2 (hepatocellular carcinoma cells)
Experiment: Oxygen consumption rate (OCR) in HepG2 cells, Seahorse XFe96 Extracellular Flux Analyzer
Format: cell-based
Method: HepG2 (hepatocellular carcinoma cells) were utilized in a Seahorse XFe96 Extracellular Flux Analyzer to analyze Compound (A)'s and the phenolic metabolite of the compound of formula (I)'s (“DNP”) effect on oxygen consumption rate (OCR).
30,000 HepG2 cells in MEM Alpha growth medium+10% Fetal Bovine Serum were seeded in XFe 96-well cell culture plate and incubated overnight at 37 °C with 5% CO2. The following day, cells were transferred to assay media (DMEM basal assay medium containing 10 mM Glucose 2 mM Glutamine, 1 mM Sodium Pyruvate, adjusted to pH7.4 with IN NaOH) and OCR was measured in a Seahorse XFe96 Extracellular Flux Analyzer according to the manufacturer's instructions. The effect of novel compounds on OCR was assayed in quadruplicates, at three different concentrations and in three separate experiments. The concentration that reaches half their maximum effect (EC50) and maximum OCR (Emax) increase as compared to DNP (100%) over untreated cells (0%) was calculated as an average between the three independent experiments. For data analysis GraphPad Prism was utilized.

SMILES: O=[N+]([O-])c1ccc(O)c([N+](=O)[O-])c1 [DNP]
- Emax (maximum OCR increase as compared to DNP (100%) over untreated cells (0%)) (OCR values normalized to 100 μM DNP (Emax=100%), average of three independent experiments): 100%
- effect on oxygen consumption rate (OCR) (result in words): increased oxygen consumption rate (OCR)
- EC50 (three concentrations in quadruplicates, average of three independent experiments, read-out: EC50 (concentration that reaches half their maximum effect on OCR)): 22 µM

From patent US20260365625A1, “DEUTERIUM ENRICHED PHENYL DERIVATIVES FOR TREATING MITOCHONDRIARELATED DISORDERS OR CONDITIONS” (Rivus Pharmaceuticals, Inc., priority 2022, published 2026)
